The source of these data is US20030157516A1, “G protein coupled receptor” (priority 2000, published 2003).

A word on the pEC50: it is −log10 of the EC50, conventionally taken in molar units. The pIC50 is the negative decadic logarithm of the IC50, by convention in mol/L. A word on the Ki: it is the dissociation constant of the complex between target and ligand, obtained from inhibition or displacement. Higher therefore signals weaker binding.

The target of test [1] is T1, adenine binding rat receptor (Rattus norvegicus, UniProt Q7TN49).
T1 construct: expressed in transfected cells; host or cells: CHO cells, transient, lipofectamine PLUS
T1 sequence (Q7TN49 1-304): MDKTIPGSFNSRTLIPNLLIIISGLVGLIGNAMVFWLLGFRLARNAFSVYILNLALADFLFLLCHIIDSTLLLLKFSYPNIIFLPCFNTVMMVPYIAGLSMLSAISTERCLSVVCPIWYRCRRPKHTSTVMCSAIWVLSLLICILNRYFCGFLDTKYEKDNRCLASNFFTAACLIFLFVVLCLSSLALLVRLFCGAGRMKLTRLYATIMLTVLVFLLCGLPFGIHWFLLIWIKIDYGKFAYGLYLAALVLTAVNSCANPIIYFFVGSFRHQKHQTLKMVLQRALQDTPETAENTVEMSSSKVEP
Description: [35S]GTPγS binding on CHO membranes transiently transfected. It is filed as biochemical. Particulars: for % stim.: increase above basal. As for the experimental part:
a) Methods—Determination of [^35S ]GTPγS binding to the G-proteins was carried out according to a modified procedure of Lazareno (Methods Mol. Biol., 83:107-116, 1997). These experiments were performed for a first functional evaluation of the receptor on the level of a membrane preparation.
The assay mixture contained 10 and 35 μg of membrane protein for the transfected and wild type CHO cells, respectively.
For testing agonistic activity, 175 μl of diluted membranes was pre-incubated in the buffer described above together with 25 μl of buffer and 25 μl of varying concentrations of the compound in a total volume of 225 μl. After a 20 minute pre-incubation period at 30° C., 25 μl of [^35S]GTPγS was added to a final concentration of 0.25 nM and the assay mixtures were further incubated for 20 minutes at 30° C. Bound and free [^35S]GTPγS were separated by rapid filtration over an UniFilter™-96, GF/B™ under reduced pressure using Filtermate 196 filtration (Packard Company (Netherlands). The amount of bound radioactivity on the filter unit was determined after drying of the filters and scintillant addition (Microscint-O; Packard Company) by liquid scintillation counting.
Basal [^35S]GTPγS binding was measured in absence of compounds. Stimulation by agonist was calculated as the percentage increase above basal levels. The sigmoid agonist concentration-response curves were analyzed by non-linear regression using the GraphPad Prism program. The different concentration points were run in duplicates and the reported data were retrieved from independent experiments.
A general note: GTPγS is a poorly hydrolysed GTP analogue; its binding reports G protein activation.

In test [2] the test system is wild type CHO cells. Description: [35S]GTPγS binding on wild type CHO membranes. It is filed as biochemical. The method, then:
a) Methods—Determination of [^35S ]GTPγS binding to the G-proteins was carried out according to a modified procedure of Lazareno (Methods Mol. Biol., 83:107-116, 1997). These experiments were performed for a first functional evaluation of the receptor on the level of a membrane preparation. […] For testing agonistic activity, 175 μl of diluted membranes was pre-incubated in the buffer described above together with 25 μl of buffer and 25 μl of varying concentrations of the compound in a total volume of 225 μl. After a 20 minute pre-incubation period at 30° C., 25 μl of [^35S]GTPγS was added to a final concentration of 0.25 nM and the assay mixtures were further incubated for 20 minutes at 30° C. […] The amount of bound radioactivity on the filter unit was determined after drying of the filters and scintillant addition (Microscint-O; Packard Company) by liquid scintillation counting. Basal [^35S]GTPγS binding was measured in absence of compounds. Stimulation by agonist was calculated as the percentage increase above basal levels. The sigmoid agonist concentration-response curves were analyzed by non-linear regression using the GraphPad Prism program. The different concentration points were run in duplicates and the reported data were retrieved from independent experiments.

Test [3] has as its system wild type CHO cells. In words: [3H]adenine competition binding on wild type CHO membranes. The following applies: 15 nM [3H]adenine. The method, then:
The membranes were prepared as total particulate fractions. […] The culturing medium was removed and the cells were washed twice with ice cold phosphate buffered saline (PBS without Ca^2+ and Mg^2+), scraped from the plates in 50 mM Tris-HCl buffer, pH 7.4, and collected by centrifugation (10 minutes at 16,000 RPM at 4° C.). The cell pellet was re-suspended in hypotonic 5 mM Tris-HCl buffer, pH 7.4, and homogenized with an Ultra Turrax homogenizer (Janker Kunkel, Germany). The homogenate was centrifuged at 18,000 RPM for 20 minutes at 4° C. The final pellet was re-suspended in 50 mM Tris-HCl buffer, pH 7.4 and stored in aliquots at −70° C. A protein determination was performed using the Bradford protein assay (Biorad, Germany) using bovine serum albumin (BSA) as standard.
Membranes were thawed on ice and diluted in 50 mM HEPES buffer, pH 7.4 supplemented with 10 mM MgCl2 and 1 mM EGTA. […] Both assays were carried out in a final volume of 500 μl, using 18 μg of membrane protein for the transfected CHO cells and 30 μg of membrane protein for the wild type CHO cells for the saturation binding. For competition binding experiments, 15 and 50 μg of membrane protein was used for the transfected and wild type cells, respectively. The reaction was terminated by rapid filtration through Whatman GF/B filters using a Brandel multi-channel cell harvester (96 wells). The filters were washed three times with 3 ml ice cold 50 mM HEPES buffer, pH 7.4, transferred to liquid scintillation vials and 3 ml of scintillation fluid (Ultima Gold MV, Packard, Netherlands) was added. Samples were counted in a β-scintillation counter after at least 6 hours to permit the glass fiber filters to become uniformly translucent.

[4] abbreviates: transiently transfected CHO membranes.
[5] abbreviates: transiently transfected cells, mean of n experiments.
Setting [6] is: transiently transfected cells, single experiments.
[7] abbreviates: transiently transfected cells, single experiments, read-out: pEC50 (converted).

Structures are written as SMILES. Values joined by “and” are separate entries in the source; they are usually repeats but may differ in a detail not shown here. Identical values can stand only once. Like-named read-outs stand apart in the source and are kept apart here. A value given as a limit tells only on which side of the number the result lay.

In the case of `Nc1ncnc2c1ncn2[C@@H]1O[C@H](COP(=O)(O)O)[C@@H](O)[C@H]1O` [AMP], in test [1] (setting [4]), the “stimulation of the receptor ([35S]GTPγS binding)” value is reported as “stimulated the receptor partially with a much lower potency”. Also, the “% stim.” value in test [1] (setting [5]) amounted to 95%; in test [2] (mean of n experiments), 0%; in test [2] (single experiments), 0%. The negative-log EC50 (pEC50) in test [1] (setting [5]) is recorded as 4.35; in test [2] (single experiments) it was <4. Besides, the pIC50 in test [3] (mean of n experiments) and in test [3] (single experiments) was <4 each time.

For the molecule `Nc1ncnc2nc[nH]c12` [Adenine, adenine], the EC50 in test [1] (transiently transfected CHO membranes, read-out: mean EC50) was 112 nM; in test [1] (setting [7]), 95.5 nM and 115 nM and 132 nM. Moreover, the “% stim.” value in test [1] (setting [5]) was 148%; in test [1] (transiently transfected cells, mean of n experiments, listed as adenine) it was 150%; in test [1] (setting [6]) it was 177% and 199% and 106% and 111%; in test [2] (mean of n experiments), 0%; in test [2] (single experiments) it was 0%. Further, the pEC50 in test [2] (single experiments) was <5. Further, affinity in test [3] (mean of n experiments) was put at a Ki of 85 nM. The molecule further had a pIC50 in test [3] (mean of n experiments) of 6.87.

In the case of `Cn1cnc2ncnc-2c1N` [1-Methyladenine], in test [1] (setting [4]), the “stimulation of the receptor ([35S]GTPγS binding)” value is “stimulated the receptor partially with a much lower potency”. Moreover, the “% stim.” value in test [1] (setting [5]) was 129%; in test [1] (setting [6]), 90% and 135% and 161%; in test [2] (mean of n experiments), 0%; in test [2] (single experiments), 0%. Further, the EC50 in test [1] (transiently transfected cells, mean of n experiments, read-out: pEC50 (converted)) is 15100 nM; in test [1] (setting [7]), 16200 nM and 12000 nM and 17800 nM. In test [2] (single experiments), the pEC50 is reported as <4. Also, the negative logarithm of the IC50 (pIC50) in test [3] (mean of n experiments) and in test [3] (single experiments) was <4 each time.
